We go through two compounds from patent publication EP0404671A1, “Thioformamide derivatives” (RHONE-POULENC SANTE, priority 1989, dated 1990).

For test [1], the system named is Thoracic aorta. As to the kind of experiment: Vaso-relaxant activity: relaxation of K+-induced contraction of rat thoracic aorta strips. Details: species or system rats. Conditions: rat thoracic aorta strips denuded of endothelium, contraction induced by 20mM K⁺, cumulative concentration; read-out: Vaso-relaxant EC₉₀. Here is the method:
The test methods used were adapted from those described by Winslow et al [Eur. J. Pharmacol., 131, 219-228 (1986)] and Karaki [J. Pharmacol Methods, 18, 1-21, (1987)] for differentiating vaso-relaxant activity.
Thoracic aorta was removed from rats and transverse strips, denuded of endothelium, were suspended in a bath containing Krebs solution. The tension was recorded and a contraction induced by addition of 20mM K⁺ (potassium ion) to the bathing solution. The test compound was added to the bath as a solution in increasing cumulative concentration. The concentration in the bathing solution of the test compound which reduced the K⁺-induced contraction was determined and expressed in nM as the effective concentration (EC₉₀)

The subject of test [2] is histamine-induced bronchospasm and blood pressure. As to the kind of experiment: Broncho-relaxant activity in the anaesthetised guinea pig (method of Dixon and Brodie). Type of test: in vivo. Particulars: nebulised aerosol of 200µg/ml aqueous solution for 1 minute; for Broncho-relaxant % maximum bronchospasm: histamine-induced bronchospasm. The procedure:
In in vivo tests in the anaesthetised guinea pig, performed according to the method of Dixon W.E. and Brodie T.G., J. Physiol 29, 97-173 (1903), the effect on histamine-induced bronchospasm and blood pressure was determined.
A nebulised aerosol generated from an aqueous solution , having a concentration of 200µg/ml was administered for 1 minute to the anaesthetised guinea pigs.

The test system of test [3] is mean blood pressure. Nature of the test: Hypotensive activity in the anaesthetised rat. Type of test: in vivo. Particulars: intravenous dose required to reduce the mean blood pressure. Here is the method:
The intravenous dose required to reduce the mean blood pressure in an anaesthetised rat was determined and expressed in µg/kg/min as the effective concentration (EC₃₀).

As to `CNC(=S)[C@]1(c2cccnc2)CCCC/C1=N\OCc1ccc(F)c(F)c1` [Compound 2, (1S)-anti-N-methyl-2-(3,4-difluorobenzyloxyimino)-1-(pyrid-3-yl)cyclohexanecarbothioamide], the EC90 in test [1] was determined as 300 pM. In test [2], the “Broncho-relaxant % maximum bronchospasm” value was 17% and the “Broncho-relaxant B.P.” value came out at 32 mmHg. For the same compound, the “Hypotensive EC₃₀” value in test [3] came to 0.5 µg/kg/min.
On the same counts, the results for `CNC(=S)[C@]1(c2cccnc2)CCCC/C1=N\OCc1c(F)c(F)c(F)c(F)c1F` [Compound 1, (1S)-anti-N-methyl-2-(2,3,4,5,6-pentafluorobenzyloxyimino)-1-(pyrid-3-yl)cyclohexanecarbothioamide] are 1000 pM, 28%, 40 mmHg and 0.9 µg/kg/min.
